This note sets out measurements from PubChem BioAssay AID1259407 (Chemical Carcinogenesis Research Information System (CCRIS), 2018).

In the data set the test system is CCRIS mutagenicity, Ames/micronucleus/aberration tests. Put plainly: CCRIS mutagenicity studies.
The mark [1] stands for this setting: Test System: AMES SALMONELLA TYPHIMURIUM, Strain/Indicator: TA98, Metabolic Activation: NONE, Method: PREINCUBATION
The mark [2] stands for this setting: Test System: AMES SALMONELLA TYPHIMURIUM, Strain/Indicator: TA100, Metabolic Activation: NONE, Method: PREINCUBATION
Where [3] appears, read: Test System: AMES SALMONELLA TYPHIMURIUM, Strain/Indicator: TA100, Metabolic Activation: NONE, Method: STANDARD PLATE.

Activity calls are given as the source filed them. How the calls were made is not given here.

In the case of `O=[N+]([O-])c1ccc(CNc2ncnc3c2ncn3[C@@H]2O[C@H](CO)[C@@H](O)[C@H]2O)cc1`, the mutagenic call reads like this: (Test System: AMES SALMONELLA TYPHIMURIUM, Strain/Indicator: TA98(1,8-DNP), Metabolic Activation: NONE, Method: PREINCUBATION) “inactive; negative”; (Test System: AMES SALMONELLA TYPHIMURIUM, Strain/Indicator: TA98(1,8-DNP), Metabolic Activation: RAT, LIVER, S-9, PCB, Method: PREINCUBATION) “inactive; negative”; (Test System: AMES SALMONELLA TYPHIMURIUM, Strain/Indicator: TA98(NR), Metabolic Activation: NONE, Method: PREINCUBATION) “inactive; negative”; (Test System: AMES SALMONELLA TYPHIMURIUM, Strain/Indicator: TA98(NR), Metabolic Activation: RAT, LIVER, S-9, PCB, Method: PREINCUBATION) “inactive; negative”; under setting [1], “inactive; negative”; (Test System: AMES SALMONELLA TYPHIMURIUM, Strain/Indicator: TA98, Metabolic Activation: RAT, LIVER, S-9, PCB, Method: PREINCUBATION) “inactive; negative”. The mutagenic call is, setting by setting: (Test System: AMES SALMONELLA TYPHIMURIUM, Strain/Indicator: TA100(1,8-DNP), Metabolic Activation: NONE, Method: PREINCUBATION) “inactive; negative”; (Test System: AMES SALMONELLA TYPHIMURIUM, Strain/Indicator: TA100(1,8-DNP), Metabolic Activation: RAT, LIVER, S-9, PCB, Method: PREINCUBATION) “inactive; negative”; (Test System: AMES SALMONELLA TYPHIMURIUM, Strain/Indicator: TA100(NR), Metabolic Activation: NONE, Method: PREINCUBATION) “inactive; negative”; (Test System: AMES SALMONELLA TYPHIMURIUM, Strain/Indicator: TA100(NR), Metabolic Activation: RAT, LIVER, S-9, PCB, Method: PREINCUBATION) “inactive; negative”; under setting [2], “inactive; negative”; (Test System: AMES SALMONELLA TYPHIMURIUM, Strain/Indicator: TA100, Metabolic Activation: RAT, LIVER, S-9, PCB, Method: PREINCUBATION) “inactive; negative”. Further, the mutagenic call reads like this: (Test System: AMES SALMONELLA TYPHIMURIUM, Strain/Indicator: YG1020, Metabolic Activation: NONE, Method: PREINCUBATION) “active; positive”; (Test System: AMES SALMONELLA TYPHIMURIUM, Strain/Indicator: YG1020, Metabolic Activation: RAT, LIVER, S-9, PCB, Method: PREINCUBATION) “inactive; negative”; (Test System: AMES SALMONELLA TYPHIMURIUM, Strain/Indicator: YG1021, Metabolic Activation: NONE, Method: PREINCUBATION) “active; positive”; (Test System: AMES SALMONELLA TYPHIMURIUM, Strain/Indicator: YG1021, Metabolic Activation: RAT, LIVER, S-9, PCB, Method: PREINCUBATION) “active; positive”; (Test System: AMES SALMONELLA TYPHIMURIUM, Strain/Indicator: YG1024, Metabolic Activation: NONE, Method: PREINCUBATION) “active; positive”; (Test System: AMES SALMONELLA TYPHIMURIUM, Strain/Indicator: YG1024, Metabolic Activation: RAT, LIVER, S-9, PCB, Method: PREINCUBATION) “inactive; negative”. The mutagenic call reads like this: (Test System: AMES SALMONELLA TYPHIMURIUM, Strain/Indicator: YG1025, Metabolic Activation: NONE, Method: PREINCUBATION) “inactive; negative”; (Test System: AMES SALMONELLA TYPHIMURIUM, Strain/Indicator: YG1025, Metabolic Activation: RAT, LIVER, S-9, PCB, Method: PREINCUBATION) “inactive; negative”; (Test System: AMES SALMONELLA TYPHIMURIUM, Strain/Indicator: YG1026, Metabolic Activation: NONE, Method: PREINCUBATION) “inactive; negative”; (Test System: AMES SALMONELLA TYPHIMURIUM, Strain/Indicator: YG1026, Metabolic Activation: RAT, LIVER, S-9, PCB, Method: PREINCUBATION) “inactive; negative”; (Test System: AMES SALMONELLA TYPHIMURIUM, Strain/Indicator: YG1029, Metabolic Activation: NONE, Method: PREINCUBATION) “inactive; negative”; (Test System: AMES SALMONELLA TYPHIMURIUM, Strain/Indicator: YG1029, Metabolic Activation: RAT, LIVER, S-9, PCB, Method: PREINCUBATION) “inactive; negative”.

For the compound `Nc1nc2c([nH]c(=O)n2[C@H]2C[C@H](O)[C@@H](CO)O2)c(=O)[nH]1`, the mutagenic call under setting [2] is “inactive; negative”.

`CC(=O)Nc1ccc(Oc2ccc(Cl)cc2Cl)cc1`: the mutagenic call by setting is: under setting [3], “inactive; negative”; (Test System: AMES SALMONELLA TYPHIMURIUM, Strain/Indicator: TA100, Metabolic Activation: RAT, LIVER, S-9, KANECLOR 500, Method: STANDARD PLATE) “active; positive”.

Consider `O=c1oc2cccc3ccc4cccc1c4c32`, for which the mutagenic call under setting [1] is “inactive; negative”; the mutagenic call (Test System: AMES SALMONELLA TYPHIMURIUM, Strain/Indicator: TA98, Metabolic Activation: RAT, LIVER, S-9, AROCLOR 1254, Method: PREINCUBATION) was “inactive; negative”; the mutagenic call under setting [2] is “inactive; negative”; the mutagenic call (Test System: AMES SALMONELLA TYPHIMURIUM, Strain/Indicator: TA100, Metabolic Activation: RAT, LIVER, S-9, AROCLOR 1254, Method: PREINCUBATION) is “inactive; negative”.

In the case of `CCCCCCCOc1ccccc1NC(=O)OCCN1CCCCC1`, the mutagenic call (Test System: AMES SALMONELLA TYPHIMURIUM, Strain/Indicator: TA98, Metabolic Activation: MOUSE, LIVER, S-9, AROCLOR 1254, Method: PREINCUBATION) is “inactive; negative”; the mutagenic call under setting [1] is “inactive; negative”; the mutagenic call (Test System: AMES SALMONELLA TYPHIMURIUM, Strain/Indicator: TA100, Metabolic Activation: MOUSE, LIVER, S-9, AROCLOR 1254, Method: PREINCUBATION) is “inactive; negative”; the mutagenic call under setting [2] was “inactive; negative”; the mutagenic call (Test System: AMES SALMONELLA TYPHIMURIUM, Strain/Indicator: TA1535, Metabolic Activation: MOUSE, LIVER, S-9, AROCLOR 1254, Method: PREINCUBATION) was “inactive; negative”; the mutagenic call (Test System: AMES SALMONELLA TYPHIMURIUM, Strain/Indicator: TA1535, Metabolic Activation: NONE, Method: PREINCUBATION) was “inactive; negative”. The mutagenic call by setting is: (Test System: AMES SALMONELLA TYPHIMURIUM, Strain/Indicator: TA1538, Metabolic Activation: MOUSE, LIVER, S-9, AROCLOR 1254, Method: PREINCUBATION) “inactive; negative”; (Test System: AMES SALMONELLA TYPHIMURIUM, Strain/Indicator: TA1538, Metabolic Activation: NONE, Method: PREINCUBATION) “inactive; negative”; (Test System: AMES SALMONELLA TYPHIMURIUM, Strain/Indicator: TA1978, Metabolic Activation: MOUSE, LIVER, S-9, AROCLOR 1254, Method: PREINCUBATION) “inactive; negative”; (Test System: AMES SALMONELLA TYPHIMURIUM, Strain/Indicator: TA1978, Metabolic Activation: NONE, Method: PREINCUBATION) “inactive; negative”; (Test System: E. COLI, Strain/Indicator: CM611 UVRA/LEXA, Metabolic Activation: MOUSE, LIVER, S-9, AROCLOR 1254, Method: PREINCUBATION) “inactive; negative”; (Test System: E. COLI, Strain/Indicator: CM611 UVRA/LEXA, Metabolic Activation: NONE, Method: PREINCUBATION) “inactive; negative”. In addition, the mutagenic call is, setting by setting: (Test System: E. COLI, Strain/Indicator: WP2, Metabolic Activation: MOUSE, LIVER, S-9, AROCLOR 1254, Method: PREINCUBATION) “inactive; negative”; (Test System: E. COLI, Strain/Indicator: WP2, Metabolic Activation: NONE, Method: PREINCUBATION) “inactive; negative”; (Test System: E. COLI, Strain/Indicator: WP2 UVRA, Metabolic Activation: MOUSE, LIVER, S-9, AROCLOR 1254, Method: PREINCUBATION) “inactive; negative”; (Test System: E. COLI, Strain/Indicator: WP2 UVRA, Metabolic Activation: NONE, Method: PREINCUBATION) “inactive; negative”; (Test System: E. COLI, Strain/Indicator: WP67 UVRA/POLA, Metabolic Activation: MOUSE, LIVER, S-9, AROCLOR 1254, Method: PREINCUBATION) “inactive; negative”; (Test System: E. COLI, Strain/Indicator: WP67 UVRA/POLA, Metabolic Activation: NONE, Method: PREINCUBATION) “inactive; negative”.

In the case of `Cc1ccc(CCl)cc1`, the mutagenic call under setting [3] is “inactive; negative”.

As for `CC1(c2ccc(Cl)cc2)CO1` (stereo not drawn), the mutagenic call under setting [2] was “active; positive”.

As for `CCN(CC)c1ccc2c(C(F)(F)F)cc(=O)oc2c1`, the mutagenic call (Test System: AMES SALMONELLA TYPHIMURIUM, Strain/Indicator: TA1538, Metabolic Activation: NONE, Method: STANDARD PLATE) was “inactive; negative” and the mutagenic call (Test System: AMES SALMONELLA TYPHIMURIUM, Strain/Indicator: TA1538, Metabolic Activation: RAT, LIVER, S-9, AROCLOR 1254, Method: STANDARD PLATE) was “inactive; negative”.
